Like-named read-outs stand apart in the source and are kept apart here.
Columns and labels:
[1] = tested on: HIV-1 strains resistant to INSTIs, NRTIs, NNRTIs or PIs; assay type: cell-based
Outline: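 Cell viability (CellTiter-Glo luminescence) served as read-out in MT4 cells at 10^6/mL, infected 2 h at MOI 0.001 in presence of graded compound concentrations. Viruses: resistance-mutation recombinants in NL4-3 backbone plus resistant clinical isolates.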

[2] = Cytotoxicity assay in MT4 cells; assay type: cell-based; details: human, MT4 cells (proliferating human T-cell line), CellTiter-Glo
Text: Growth inhibition was monitored in a proliferating human T-cell line (MT4) with different concentrations of compounds, using the CellTiter-Glo luminescent reagent (Promega), as previously described ([12]).

NL4-3 HIV-1 strain = assay: Multiple-round infection assay in MT4 cells, NL4-3; assay type: cell-based; details: MT4 cells
[3] = tested on: lab-adapted and clinical HIV-1 isolates; assay: Infection assays in primary T CD4+ lymphocytes; assay type: cell-based; details: Human immunodeficiency virus 1, Lymphocyte
HXB2 HIV-1 strain = assay: Multiple-round infection assay in MT4 cells, HXB2; assay type: cell-based; details: Human immunodeficiency virus 1, HXB2; multiple-round infection, MT4 cells; mean ± SD, n > 5; read-out: EC50 HXB2
Outline: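 Antiviral read-out was CellTiter-Glo luminescent viability of exponentially growing MT4 cells (10^6/mL). Cells were exposed to HIV-1 for 2 h at an MOI of 0.001 while compound was present at varying concentrations.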

[4] = tested on: recombinant NL4-3 viruses with polymorphisms at IN positions 124 and 125; assay: Multiple-round infection of MT4 cells with recombinant NL4-3 viruses polymorphic at IN positions 124 and 125; assay type: cell-based, HIV-1
Outline: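 EC50 fold change relative to wild-type TT NL4-3 was derived from CellTiter-Glo viability of exponentially growing MT4 cells (10^6/mL). Cells were exposed for 2 h, with compounds, to NL4-3 clones bearing one of 15 IN 124/125 variants at MOI 0.001.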

[5] = target: HIV-1 IN-LEDGF/p75 interaction (Human immunodeficiency virus type 1 group M subtype B, UniProt P12497); assay: biochemical
[6] = tested on: primary HIV-1 isolates with polymorphisms at IN positions 124 and 125; assay: Multiple-round infection of MT4 cells with primary HIV-1 isolates polymorphic at IN positions 124 and 125; assay type: cell-based; details: primary isolate
Outline: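 Antiviral potency read as protection of cell viability (CellTiter-Glo luminescence). Infection at MOI 0.001 lasted 2 h with compound present at a range of concentrations, using MT4 cells at 10^6/mL in exponential growth.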

[7] = tested on: VSV-G-pseudotyped NL4-3Δenv-luc; assay: microbe, parasite or virus in culture; assay type: cell-based, HIV-1
[8] = tested on: NL4-3 HIV-1 with INLAI-selected IN single point mutations; assay type: cell-based
HIV-1 IN = target: T1, HIV-1 IN (Human immunodeficiency virus type 1 group M subtype B, UniProt P12497); assay: HTRF IN multimerization assay; assay type: biochemical; details: mean ± SD
T1 construct: made in house
Text: A key property of INLAIs is the ability to promote HIV-1 IN homo-multimerization ([39][–][42]). […] The maximal signal (plateau) in our IN aggregation assay corresponds to the highest HTRF signal increase under saturating INLAI concentration, relative to baseline level. Thus, MUT916, MUT884, MUT871, and MUT872 increased HIV-1 IN aggregation 3.7 to 4.4-fold, while BDM-2, BI-224436, and S-I-82 did so 5 to 6-fold (Table 1).

[9] = target: CCD of HIV-1 IN and IBD of LEDGF/p75 (Human immunodeficiency virus type 1 group M subtype B, UniProt P12497); assay: biochemical
[10] = INSTI-resistant, NL4-3 background

Structure (SMILES): Cc1ccc(C2CC2)c(-c2ccc3c(c2C)CCCO3)c1[C@H](OC(C)(C)C)C(=O)O [MUT871]
- Fold change in EC50 relative to NL4-3, E92Q [1, 10]: 1
- Fold change in EC50 relative to NL4-3, G140S [1, 10]: 1
- Fold change in EC50 relative to NL4-3, G140S/Q148H [1, 10]: 1
- Fold change in EC50 relative to NL4-3, N155H [1, 10]: 1
- Fold change in EC50 relative to NL4-3, Q148H [1, 10]: 1
- Fold change in EC50 relative to NL4-3, Y143R [1, 10]: 1
- Fold change in EC50 relative to NL4-3, NLAY351717 ([1]; NRTI-resistant clone): 1
- Fold change in EC50 relative to NL4-3, NLAY351753 ([1]; NRTI/NNRTI-resistant clone): 1
- Fold change in EC50 relative to NL4-3, K103N/Y181C ([1]; NRTI/NNRTIs group, NL4-3 background): 1
- Fold change in EC50 relative to NL4-3, ARP-4595 ([1]; PI-resistant virus): 1
- Fold change in EC50 relative to NL4-3, ARP-4596 ([1]; PI-resistant virus): 1
- Fold change in EC50 relative to NL4-3, ARP-11801 ([1]; PI-resistant virus): 1
- Fold change in EC50 relative to NL4-3, ARP-11803 ([1]; PI-resistant virus): 1
- Fold change in EC50 relative to NL4-3, ARP-11807 ([1]; PI-resistant virus): 1
- Fold change in EC50 relative to NL4-3, ARP-11808 ([1]; PI-resistant virus): 1
- CC50 [2]: 46000 ± 11000 nM
- EC90 (NL4-3 HIV-1 strain; Human immunodeficiency virus 1, NL43, multiple-round infection, from dose response curves, read-out: EC90 NL4-3): 4.6 ± 1.6 nM
- EC50 (NL4-3 HIV-1 strain; Human immunodeficiency virus 1, NL43, multiple-round infection, mean ± SD, n > 5, read-out: EC50 NL4-3): 3.1 ± 1 nM
- Selectivity index CC50/EC50 NL4-3 (NL4-3 HIV-1 strain): 14,838
- EC50 ([3]; read-out: EC50 33913N (B)): 1.5 ± 0.6 nM
- EC50 ([3]; read-out: EC50 HXB2 (B)): 1.8 ± 0.3 nM
- EC50 ([3]; read-out: EC50 KER2008 (A)): 6.4 ± 1.3 nM
- EC50 ([3]; read-out: EC50 NL4-3 (B)): 2.8 ± 0.5 nM
- EC50 ([3]; read-out: EC50 NP1525 (CRF01_AE)): 3.5 ± 0.6 nM
- EC50 ([3]; read-out: EC50 NP1538 (B)): 4 ± 2.3 nM
- EC50 (HXB2 HIV-1 strain): 1.4 ± 0.3 nM
- Fold change in EC50 relative to parental NL4-3, AA ([4]; recombinant NL4-3, IN 124/125 AA): 1
- Fold change in EC50 relative to parental NL4-3, AM ([4]; recombinant NL4-3, IN 124/125 AM): 0.4
- Fold change in EC50 relative to parental NL4-3, AT ([4]; recombinant NL4-3, IN 124/125 AT): 1
- Fold change in EC50 relative to parental NL4-3, AV ([4]; recombinant NL4-3, IN 124/125 AV): 1
- Fold change in EC50 relative to parental NL4-3, GA ([4]; recombinant NL4-3, IN 124/125 GA): 3
- Fold change in EC50 relative to parental NL4-3, GT ([4]; recombinant NL4-3, IN 124/125 GT): 2
- Fold change in EC50 relative to parental NL4-3, NA ([4]; recombinant NL4-3, IN 124/125 NA): 2
- Fold change in EC50 relative to parental NL4-3, NT ([4]; recombinant NL4-3, IN 124/125 NT): 1
- Fold change in EC50 relative to parental NL4-3, NV ([4]; recombinant NL4-3, IN 124/125 NV): 1
- Fold change in EC50 relative to parental NL4-3, SA ([4]; recombinant NL4-3, IN 124/125 SA): 1
- Fold change in EC50 relative to parental NL4-3, ST ([4]; recombinant NL4-3, IN 124/125 ST): 1
- Fold change in EC50 relative to parental NL4-3, TA ([4]; recombinant NL4-3, IN 124/125 TA): 1
- Fold change in EC50 relative to parental NL4-3, TM ([4]; recombinant NL4-3, IN 124/125 TM): 0.3
- Fold change in EC50 relative to parental NL4-3, TV ([4]; recombinant NL4-3, IN 124/125 TV): 1
- IC50 [5]: 14 ± 5 nM
- Fold change in EC50 relative to parental NL4-3, CAM2BBY (CRF02) ([6]; IN 124/125 AA): 2
- Fold change in EC50 relative to parental NL4-3, E0836M4 (D) ([6]; IN 124/125 AA): 2
- Fold change in EC50 relative to parental NL4-3, KER2008 (A) ([6]; IN 124/125 AA): 1
- Fold change in EC50 relative to parental NL4-3, NP1525 (CRF01) ([6]; IN 124/125 AA): 1
- Fold change in EC50 relative to parental NL4-3, NP1695 (CRF02) ([6]; IN 124/125 AA): 3
- Fold change in EC50 relative to parental NL4-3, TZA125 (C) ([6]; IN 124/125 AA): 1
- Fold change in EC50 relative to parental NL4-3, KSM4030 (A) ([6]; IN 124/125 GA): 2
- Fold change in EC50 relative to parental NL4-3, vGA (C) ([6]; IN 124/125 GA): 5
- Fold change in EC50 relative to parental NL4-3, 99ET14 (C) ([6]; IN 124/125 NA): 2
- Fold change in EC50 relative to parental NL4-3, NP1538 (B) ([6]; IN 124/125 NA): 2
- Fold change in EC50 relative to parental NL4-3, vNA_1 (B) ([6]; IN 124/125 NA): 3
- Fold change in EC50 relative to parental NL4-3, vNA_2 (CRF02) ([6]; IN 124/125 NA): 3
- Fold change in EC50 relative to parental NL4-3, vNV (B) ([6]; IN 124/125 NV): 3
- Fold change in EC50 relative to parental NL4-3, vSA_1 (B) ([6]; IN 124/125 SA): 4
- Fold change in EC50 relative to parental NL4-3, vSA_2 (CRF02) ([6]; IN 124/125 SA): 3
- Fold change in EC50 relative to parental NL4-3, vTA_1 (B) ([6]; IN 124/125 TA): 2
- Fold change in EC50 relative to parental NL4-3, vTA_2 (CRF02) ([6]; IN 124/125 TA): 2
- EC50 ratio (single/multiple-round infection) [7]: 203
- EC50 ([7]; Human immunodeficiency virus 1, NL43, MT4, read-out: EC50 in single-round infection): 630 ± 10 nM
- EC50 fold change compared to wild type NL4-3, A128T [8]: 2
- EC50 fold change compared to wild type NL4-3, H171Q [8]: 6
- EC50 fold change compared to wild type NL4-3, N222K [8]: 3
- EC50 fold change compared to wild type NL4-3, T174I [8]: 323
- EC50 fold change compared to wild type NL4-3, Y99H [8]: 4
- AC50 (HIV-1 IN; concentration for 50% maximum activation of multimerization): 31 ± 20 nM
- IN multimerization Plateau (HIV-1 IN; maximum multimerization reached versus baseline): 440 ± 53%
- IC50 [9]: 32 ± 14 nM
